{
  "source": "patent US7749961B2",
  "about": "“Macrocyclic peptides active against the hepatitis C virus” (Boehringer Ingelheim International GmbH, priority 2004, dated 2010)",
  "origin": "cited, not measured here",
  "tested_on": "hepatitis C virus",
  "conditions": "two day clinical trial",
  "data": [
    {"smiles": "COc1ccc2c(O[C@@H]3C[C@H]4C(=O)N[C@]5(C(=O)O)C[C@H]5/C=C\\CCCCC[C@H](NC(=O)OC5CCCC5)C(=O)N4C3)cc(-c3csc(NC(C)C)n3)nc2c1", "note": "[BILN 2061]", "values": [
      {"measurement": "reduction of viral loads in patients infected with the hepatitis C virus", "value": "effective in rapidly reducing viral loads"}
    ]}
  ]
}
